Experimental data taken from PMC12118597 (Science Advances, 2025).
“And” between values parts separate entries of the source, which are not always exact repeats. Equal entries are not always repeated. Where two headings read alike, the source gives them in different places.

Assays:
[1] = molecular target: T1, SARS-CoV-2 NSP3 macrodomain (Mac1) (Severe acute respiratory syndrome coronavirus 2, UniProt P0DTD1); assay: biochemical; type: binding
[2] = molecular target: T1, SARS-CoV-2 NSP3 macrodomain (Mac1); type: binding; details: for X-ray crystal structure: TRUE = crystal structure with ligand obtained; for Number of isomers bound: ligand modeling, Mac1 crystal soak; for 2*(1-BDC) (%): occupancy estimate from PanDDA; for Binding site: site of ligand in X-ray crystal structure
[3] = HTRF binding curve, SARS-CoV-2 Mac1
[4] = SARS CoV-2 macrodomain HTRF assay
[5] = SARS CoV-2 macrodomain HTRF assay, dose-response
[6] = SARS CoV-2 macrodomain HTRF assay, dose-response, read-out: IC50
[7] = crystal soak 10 mM, DMSO background map
[8] = SARS CoV-2 macrodomain HTRF assay, single dose concentration 200 μM, read-out: Average % competition
[9] = compound at 200 μM, mean of three to four technical replicates, read-out: % competition at 200 μM (preliminary HTRF screen)
[10] = Single dose, concentration 200 μM
[11] = SARS CoV-2 macrodomain HTRF assay, single dose concentration 200 μM
[12] = stereoisomer(s) modeled as bound, residues 201/202/203
[13] = read-out: IC50 (confirmatory HTRF dose-response screen)
[14] = stereoisomer(s)/conformations of the soaked ligand modeled in the Mac1 crystal structure

SMILES	Ki [1, 4]	Ligand efficiency (binding enery per heavy atom) [1, 4]	Number of isomers bound [2]	PanDDA run, TFA/DMSO background map: 1-BDC ([2]; crystal soak 10 mM)	PanDDA run, TFA/DMSO background map: Hit ([2]; crystal soak 10 mM)	inhibition at 200 µM [1, 9]	Average % competition [1, 10]	other results
Cc1c[nH]c2ncnc(NCC3(O)CCC3)c12 [AVI-3571, 1-(((5-methyl-7H-pyrrolo[2,3-d]pyrimidin-4-yl)amino)methyl)cyclobutan-1-ol]	14 µM	0.39	1	–	–	–	–	Hill slope [1, 3]: 1.0; Hill slope [1, 5]: 1.0; IC50 [1, 6]: 15 µM; Occupancy difference (refined_occupancy - 2*(1-BDC)) [2]: 0; 1-BDC ([2]; PanDDA background density correction factor): 0.15; X-ray crystal structure [2]: TRUE; PanDDA run, overall: Hit ([2]; crystal soak 10 mM, P43 crystal form): TRUE; PanDDA run, DMSO background map: 1-BDC [2, 7]: 0.15 and 0.2; PanDDA run, DMSO background map: Hit [2, 7]: TRUE; Total number of conformations ([2]; ligand conformations modeled in the crystal structure): 2; 2*(1-BDC) (%) [2]: 30%; Refined ligand occupancy (%) ([2]; refined crystallographic occupancy): 30%; Binding site [2]: Adenosine
O=C(O)C(F)(F)F.OCC1(Nc2ncnc3[nH]ccc23)CCCC1 [AVI-3692]	46 µM	0.35	1	0.11	TRUE	–	–	IC50 [1, 6]: 49 µM
Cc1nn(C)cc1C1CC[C@H](CO)N1c1ncnc2[nH]ccc12 (stereo partly shown) [AVI-3733]	–	–	1	–	–	44%	–	inhibition at 200 µM [1, 8]: 44%
OCC(CC1CCCO1)Nc1ncnc2[nH]ccc12 (stereo not shown) [AVI-3660]	–	–	1	0.17	TRUE	18%	18%	–
OCC(Nc1ncnc2[nH]ccc12)c1ccco1 (stereo not shown) [AVI-3659]	–	–	1	0.08	TRUE	55%	55%	–
NC(=O)C1(O)CCN(c2ncnc3[nH]ccc23)C1 (stereo not shown) [AVI-611]	–	–	1	–	–	30%	–	Average % competition [1, 11]: 30%; Isomers modeled [2, 12]: S,S
OCC(Nc1ncnc2[nH]ccc12)C1CC1 (stereo not shown) [AVI-3651]	45 µM	0.38	1	0.16	TRUE	–	–	IC50 [1, 6]: 48 µM
Cc1ccc(CC(CO)Nc2ncnc3[nH]ccc23)cc1C (stereo not shown) [AVI-3684]	–	–	2	–	–	< 10%	<10%	Isomers modeled [2, 12]: R,S
O[C@H]1CC[C@@H]2CCN(c3ncnc4[nH]ccc34)[C@@H]21 [AVI-3664]	26 µM	0.35	1	0.15	TRUE	–	–	IC50 [1, 6]: 28 µM; Isomers modeled [2, 12]: SRS
O=C(O)C(F)(F)F.OC[C@@H]1CC2(CC2)CN1c1ncnc2[nH]ccc12 [AVI-3710]	–	–	1	0.23	TRUE	57%	–	inhibition at 200 µM [1, 8]: 57%; Isomers modeled [2, 12]: S,S
OCC(Nc1ncnc2[nH]ccc12)C1CCC1 (stereo not shown) [AVI-3638]	–	–	1	0.1	TRUE	77%	77%	–
OCC(Cc1ccoc1)Nc1ncnc2[nH]ccc12 (stereo not shown) [AVI-3705]	–	–	1	0.14	TRUE	64%	64%	–
Cc1ccc(CC(CO)Nc2ncnc3[nH]ccc23)cc1 (stereo not shown) [AVI-3683]	–	–	2	–	–	14%	14%	Isomers modeled [2, 12]: S,R
CC(CNC(=O)c1ccc2c(c1)CCC(=O)N2)C(=O)O (stereo not shown) [AVI-328]	–	–	2	–	–	–	–	Ligand efficiency (binding enery per heavy atom) [1]: 0.25; Ki ([1]; dose-response): 210 µM; IC50 [1, 13]: 220 µM; Isomers modeled [2, 12]: R,S
CC(C)(C)C1CCC(CO)N(c2ncnc3[nH]ccc23)C1 (stereo not shown) [AVI-3719]	–	–	1	–	–	36%	–	inhibition at 200 µM [1, 8]: 36%
Cc1c(C)n(Cc2ccccc2)c2ncnc(N)c12 [AVI-321]	–	–	1	–	–	19%	–	–
CC(C)(O)C1C2CCCCC2CN1c1ncnc2[nH]ccc12 (stereo not shown) [AVI-4127]	120 µM	0.25	–	–	–	–	–	IC50 [1, 6]: 130 µM; Isomers modeled [2, 14]: SSR,SRS
CC1CC(C(=O)O)CCN1C(=O)c1ccc2c(c1)OCC(=O)N2 (stereo not shown) [AVI-303]	–	–	1	–	–	< 10%	–	inhibition at 200 µM ([1]; single dose concentration 200 μM (TS-FrankenROCS series), read-out: Average % competition): < 10%

SMILES	Ki [1, 4]	Ligand efficiency (binding enery per heavy atom) [1, 4]	Number of isomers bound [2]	PanDDA run, TFA/DMSO background map: 1-BDC ([2]; crystal soak 10 mM)	PanDDA run, TFA/DMSO background map: Hit ([2]; crystal soak 10 mM)	inhibition at 200 µM [1, 9]	Average % competition [1, 10]	other results
Cc1ccccc1CC(CO)Nc1ncnc2[nH]ccc12 (stereo not shown) [AVI-3674]	–	–	1	0.15	TRUE	32%	32%	–
CCC1(O)CCN(c2ncnc3[nH]ccc23)C1 (stereo not shown) [AVI-612]	–	–	1	–	–	22%	–	Average % competition [1, 11]: 22%
CC(C)(O)[C@H]1CCCN1c1ncnc2[nH]ccc12 [AVI-607, 2-[(2R)-1-{7H-pyrrolo[2,3-d]pyrimidin-4-yl}pyrrolidin-2-yl]propan-2-ol]	4.7 µM	0.41	1	–	–	–	–	Ligand efficiency ([1]; Binding energy per heavy atom): 0.41; IC50 [1, 13]: 5.1 µM
CN1CCN(c2ncnc3[nH]ccc23)C(CO)C1 (stereo not shown) [AVI-3721]	–	–	1	–	–	11%	–	inhibition at 200 µM [1, 8]: 11%; Isomers modeled [2, 12]: R,R
OCC(Cc1nccs1)Nc1ncnc2[nH]ccc12 (stereo not shown) [AVI-3673]	–	–	1	0.15	TRUE	38%	38%	–
OCC(Nc1ncnc2[nH]ccc12)C1CCCC1 (stereo not shown) [AVI-3649]	–	–	1	0.11	TRUE	68%	68%	–
OCC(O)C1CCCN1c1ncnc2[nH]ccc12 (stereo not shown) [AVI-3701]	–	–	1	0.16	TRUE	54%	–	inhibition at 200 µM [1, 8]: 54%
OCC1C2CCC(C2)N1c1ncnc2[nH]ccc12 (stereo not shown) [AVI-3713]	25 µM	0.35	1	–	–	–	–	IC50 [1, 6]: 27 µM; Isomers modeled [2, 12]: SSR
OCC1CCCN1c1ncnc2[nH]ccc12 (stereo not shown) [AVI-3685]	–	–	1	–	–	48%	–	fold decrease in affinity relative to AVI-607 ([1]; HTRF): > 20 fold; inhibition at 200 µM [1, 8]: 47%
O=C(O)C(F)(F)F.OCC1(Nc2ncnc3[nH]ccc23)CCC1 [AVI-3670]	36 µM	0.38	1	0.12	TRUE	–	–	IC50 [1, 6]: 39 µM
OCC(Cc1ccc(I)cc1)Nc1ncnc2[nH]ccc12 (stereo not shown) [AVI-3686]	–	–	2	0.19	TRUE	< 10%	<10%	Isomers modeled [2, 12]: S,R
Cc1c[nH]c2ncnc(NCC3(O)CCCC3)c12 [AVI-3760, 1-(((5-methyl-7H-pyrrolo[2,3-d]pyrimidin-4-yl)amino)methyl)cyclopentan-1-ol]	18 µM	0.36	–	–	–	–	–	Hill slope [1, 3]: 1.1; Hill slope [1, 5]: 1.1; IC50 [1, 6]: 19 µM; 1-BDC ([2]; PanDDA background density correction, 1-BDC): 0.16; X-ray crystal structure [2]: TRUE; Hit (PanDDA run, DMSO background map) [2, 7]: TRUE; 1-BDC (PanDDA run, DMSO background map) ([2]; crystal soak 10 mM, DMSO background map, event 1): 0.19 and 0.16; Hit (PanDDA run, overall) ([2]; crystal soak, 10 mM soak concentration, P43 crystal form): TRUE; Refined ligand occupancy (%) ([2]; crystallographic refinement): 50%; 2*(1-BDC) (%) [2]: 32%; Binding site [2]: Adenosine
CC(C)(C)[C@@H]1CCN(c2ncnc3[nH]ccc23)[C@H](CO)C1 [AVI-3722]	–	–	1	–	–	22%	–	inhibition at 200 µM [1, 8]: 22%
OCC(Cc1c[nH]c2ccccc12)Nc1ncnc2[nH]ccc12 (stereo not shown) [AVI-3650]	–	–	2	0.11	TRUE	71%	71%	Isomers modeled [2, 12]: R,S
CC1(C)C[C@@H](CO)N(c2ncnc3[nH]ccc23)C1.O=C(O)C(F)(F)F [AVI-3704]	27 µM	0.35	1	–	–	–	–	IC50 [1, 6]: 29 µM
CC(C)(O)C1C2CCC2CN1c1ncnc2[nH]ccc12 (stereo not shown) [AVI-4128]	22 µM	0.32	–	–	–	–	–	IC50 [1, 13]: 24 µM; Isomers modeled [2, 14]: SRR
OCC(Cc1cncs1)Nc1ncnc2[nH]ccc12 (stereo not shown) [AVI-3703]	–	–	1	0.1	TRUE	28%	28%	–
